Results taken from article PMC11213934, “Allosteric modulators of M1 muscarinic receptors enhance acetylcholine efficacy and decrease locomotor activity and turning behaviors in zebrafish” (Scientific Reports, 2024).
Entries after “also recorded” stand apart in the source; their conditions may differ. Marks after values point to notes of the source that are not given here.

Assays:
[1] = tested on: wild-type (AB) zebrafish (Danio rerio); experiment: Maximum tolerated concentration (MTC) determination in larval zebrafish; assay type: in vivo; settings: after 24 h exposure; 5 dpf larvae
Protocol: (§1) Larval zebrafish were produced in the University of Toledo zebrafish core facility and housed in an incubator maintained at 28 °C on a 14:10 h cycle. Fish were acclimated to the testing room conditions the evening prior to testing. All testing took place during the 14 h light cycle after the lights had been on for at least 2 h.
Determination of maximum tolerated concentration (adapted from Berghmans)[52] was completed by placing 5 days post fertilization (dpf) wild-type zebrafish larvae in a 24 well plate at 6 fish per well, and one compound concentration per well. […] Death was determined by the absence of heartbeat. Additional endpoints were used to assess toxicity at non-lethal concentrations such as startle capacity (poke stimulus), abnormalities in swimming behavior (loss of dorsoventral balance), and gross morphological deformities (bent body). […] The MTC determination was used to select three doses of each compound (low, medium, high dose) to be used in behavioral assays.

[2] = tested on: wild-type (AB) zebrafish (Danio rerio); experiment: animal or person; assay type: in vivo; settings: for Distance moved / Variance turn angle: compound at 10 µM relative to controls, mean ± s.e.m., N = 12; for MEC: locomotor behaviors
Protocol: as §1
The movement of larval zebrafish was monitored with the Noldus behavior recording system (Noldus Information Technology, Leesburg VA) and quantified using EthoVision® XT 15 software (Noldus Information Technology, Leesburg VA). Five-dpf zebrafish larvae were exposed to a range of nonlethal concentrations of compounds in a 24-well plate with appropriate controls. The plate was immediately placed in the incubator for a 30-min exposure period. After 30 min, the plate was transferred to the Noldus system and swimming behavior was recorded in 100% light for 30 min to measure spontaneous swimming behavior. The light was switched off for 10 min (dark period) and then switched on for 10 min (light period), which was then repeated for two additional cycles. In total, the larvae were exposed to three cycles of alternating 10 min dark and light periods (100% darkness-to-100% light). Each drug challenge was conducted on three separate plates with n = 6 larvae/dose/plate.
Absolute turn angle (TA) and angular velocity provided measures of the extent of turning behavior, while the intra-individual variance of turn angle quantified how consistently (low variance) or inconsistently (high variance) fish turned. A lowered intra-individual variance of turning reflected repeatedly performing the same turning behavior, a stereotypy.
All data for exposure and the behavioral end points were analyzed by one-way ANOVA (factor: drug concentration) followed by a Dunnett’s multiple comparisons test for post hoc significance between drug concentration and control group. Statistically significant differences are noted as follows; *p < 0.05; **p < 0.01; ***p < 0.001.

[3] = tested on: wild-type (AB) zebrafish (Danio rerio); assay type: in vivo; settings: compound at 10 µM relative to controls; mean ± s.e.m., N = 12
[4] = target: T1, human M1 muscarinic receptors (Homo sapiens, UniProt P11229); experiment: [3H]-arachidonic acid release in CHO cells expressing M1 receptors, with and without ACh (single modulator concentration, four-parameter curves); assay type: cell-based; set-up: expressed in transfected cells; host or cells: CHO cells stably transfected with hM1, obtained from Mark Brann's laboratory (NIH); settings: for 0.1 µM ACh: response with modulator present divided by response to ACh alone / 100 µM ACh: response with modulator present divided by response to ACh alone / No ACh: agonist effect of the allosteric ligand by itself, fraction of the maximal response that could be elicited by ACh: modulator 10 µM, CHO-hM1, mean ± s.e.m.; for No ACh: agonist effect of the allosteric ligand by itself, fraction of the maximal response that could be elicited by ACh: at least 4 determinations
T1 sequence (P11229 1-460): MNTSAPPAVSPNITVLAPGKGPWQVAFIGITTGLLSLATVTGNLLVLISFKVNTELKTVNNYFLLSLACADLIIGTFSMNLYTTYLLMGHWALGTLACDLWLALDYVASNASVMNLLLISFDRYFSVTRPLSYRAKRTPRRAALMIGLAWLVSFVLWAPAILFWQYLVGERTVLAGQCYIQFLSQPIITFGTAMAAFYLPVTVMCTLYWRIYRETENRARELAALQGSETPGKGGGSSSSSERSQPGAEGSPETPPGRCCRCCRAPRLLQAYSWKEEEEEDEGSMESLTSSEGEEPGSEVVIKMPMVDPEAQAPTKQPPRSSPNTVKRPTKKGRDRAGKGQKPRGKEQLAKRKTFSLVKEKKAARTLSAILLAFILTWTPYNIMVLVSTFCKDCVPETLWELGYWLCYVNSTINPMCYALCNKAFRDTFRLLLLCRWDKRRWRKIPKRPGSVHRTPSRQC
Protocol: CHO cells expressing human M1 muscarinic receptors were cultured at 37 °C in a 5% CO2 atmosphere in F12 medium supplemented with 5% fetal bovine serum, 100 units/ml penicillin, and 100 µg/ml streptomycin. These cells were obtained from Mark Brann’s laboratory when they were at NIH and have been in use by us and others for many years.
Measurement of [^3H]AA release was performed as described in Stahl and Ellis[24]. Stably transfected CHO-hM1 cells were seeded on 24-well plates (Greiner Bio-One GmbH, Frickenhausen, Germany) at a density of 5.0 × 10^4 cells/well in 0.5 ml of F-12 medium. Cells were incubated until they attached (approximately 3 h), followed by the addition of [^3H]AA to a final concentration of 0.05 μCi of [^3H]AA per well. The cells were then grown for 16 to 20 h before the assay was performed. [^3H]AA release was measured in Eagle’s basal medium with 20 mM HEPES and 2 mg/ml fatty acid-free bovine serum albumin (EM-BSA). Cells were rinsed twice with EM-BSA, followed by the addition of EM-BSA media containing experimental agents and incubated for 1 h at 37 °C. The assay was terminated by aspiration of the media, and the amount of [^3H]AA released was determined by liquid scintillation counting (Beckman-Coulter LS6500).
Where indicated (Fig. 2), cells were pretreated with POB to reduce the number of available receptors per cell. Stock POB was made up at 10 mM in ethanol and stored at −20C. Each well was pretreated with 0.5 ml of the appropriate concentration in PBS with 1 mM CaCl2 and 1 mM MgCl2 (PBS+ +) for 30 min at 37 °C, followed by 5 washes with PBS+ + . After pretreatment, the normal protocol follows as above.
Tabulated [^3H]AA release data are represented as a fraction of maximal release elicited by ACh or as the fraction of release elicited by the relevant concentration of ACh alone, as indicated. Dose-response curves were normalized to the maximal response of ACh without allosteric ligand. Where indicated, response curves were analyzed using the empirical four-parameter equation: Y=Top+Bottom-Top/1+X/C50^n where X is the concentration of the ligand used, Y is the amount of response, C50 is the concentration of the ligand that produces 50% of the maximal effect, Top and Bottom are the top and bottom plateaus of the curve, and n is related to the Hill slope for the curve. Where indicated, families of response curves were analyzed according to an allosteric operational model[50],[51]: Y=EM[τAA(KB+αβB)+τBBKA]/[τAA(KB+αβB)+τBBKA+AKB+KAKB+KAB+αAB] where EM is the maximal response; A is the concentration of ACh; B is the concentration of the allosteric ligand; τA and τB represent the operational efficacies of A and B, respectively; KA and KB are the equilibrium dissociation constants of A and B; and α and β represent the cooperativities between A and B in terms of binding and activation, respectively. Curve-fitting was carried out with GraphPad Prism, version 5.0 or 6.0 (San Diego CA).

SMILES	MTC (maximum tolerated concentration) [1] [µM]	Therap. index [2]	Distance moved [2]	Variance turn angle [2]	MEC [2] [µM]	Angular velocity [3] [%]	0.1 µM ACh: response with modulator present divided by response to ACh alone [4]	100 µM ACh: response with modulator present divided by response to ACh alone [4]	No ACh: agonist effect of the allosteric ligand by itself, fraction of the maximal response that could be elicited by ACh [4]	Effect on M1 receptor activity and ACh response, in words ([4]; modulators at 10 µM (amiodarone 30 µM))
COc1ccc(CN2C(=O)C(=O)c3ccccc32)cc1F [Compound 8h, 1-(3-fluoro-4-methoxybenzyl)indoline-2,3-dione]	30	10	52.7 ± 6.6*** %	148.0 ± 12.4*** %	3	201.4 ± 27.5	1.32 ± 0.10	0.97 ± 0.06	0.05 ± 0.03	–
O=C1C(=O)N(Cc2cc(F)c(F)c(F)c2)c2ccccc21 [Compound 8i, 1-(3,4,5-trifluorobenzyl)indoline-2,3-dione]	10	10	11.6 ± 1.2*** %	146.1 ± 16.1** %	1	412.1 ± 28.7	1.47 ± 0.12	1.04 ± 0.02	0.06 ± 0.01	–
COc1cc(CN2C(=O)C(=O)c3ccccc32)cc(OC)c1OC [Compound 8k, 1-(3,4,5-trimethoxybenzyl)indoline-2,3-dione]	30	30	66.2 ± 8.4** %	126.3 ± 10.8* %	1	154.2 ± 18.0	1.55 ± 0.07	0.94 ± 0.06	0.03 ± 0.00	–
CCN(CC)CCOc1c(Br)cc(CN2C(=O)C(=O)c3ccccc32)cc1Br.Cl [Compound 8l, 1-(3,5-dibromo-4-(2-(diethylamino)ethoxy)benzyl)indoline-2,3-dione hydrochloride]	10	1	33.5 ± 4.4** %	166.1 ± 12.5*** %	10	184.7 ± 17.0	0.10 ± 0.07	0.86 ± 0.04	0.05 ± 0.01	only decreased ACh activity; also recorded: decreased ACh potency with little impact on ACh efficacy
O=C1C(=O)N(Cc2ccc(O)cc2)c2ccccc21 [Compound 10, 1-(4-hydroxybenzyl)indoline-2,3-dione]	10	3.3	72.4 ± 8.6* %	135.3 ± 13.5* %	3	131.2 ± 13.4	1.42 ± 0.24	0.92 ± 0.06	0.01 ± 0.01	–
CCCCc1oc2ccc(NS(C)(=O)=O)cc2c1C(=O)c1ccc(OCCCN(CCCC)CCCC)cc1 [Dronedarone, reference compound]	10	1	28.3 ± 5.3*** %	141.6 ± 12.5*** %	10	172.8 ± 25.7	0.25 ± 0.05	0.75 ± 0.07	0.08 ± 0.01	–
